Assay results taken from patent US20070066680A1, “Benzofurans and benzothiophenes” (priority 2003, published 2007).
Marks after values point to notes of the source that are not given here.

What was measured:
insulin secretion = experiment: Test of insulin secretion according to Endocrinology, 1992 vol. 130 (1) pp. 167-178; assay type: cell-based; conditions: Rattus norvegicus, INS1; compounds tested at 10^−5 M; read-out: SEC INS1 (% of insulin secretion)
Description: Test of Insulin Secretion According to the Method Described in Endocrinology, 1992 vol. 130 (1) pp. 167-178
The insulin-secreting activities are collated in Table B. The compounds according to the invention were tested at a concentration of 10^−5 M.

[1] = system: isolated islets of Langerhans; experiment: Insulin secretion in isolated rat islets of Langerhans, static incubation, RIA; assay type: cell-based; conditions: 90 minutes incubation, stimulation if factor >= 130%; for Insulin secretion stimulation factor, Product + G2.8 mM: glucose 2.8 mM; for Insulin secretion stimulation factor, Product + G8 mM: glucose 8 mM
Description: Study of the Activity on Isolated Rat Islets
Effect of the chemical compounds on insulin secretion as a function of the glucose concentration, in vitro, in isolated islets of Langerhans in static incubation (Table C):
The islets of Langerhans obtained by digestion of exocrine pancreatic tissue with collagenase, and then purified on Ficoll gradient, are incubated for 90 minutes in the presence of two concentrations of glucose, (2.8 mM or 8 mM), in the presence or absence of the chemical compound. The insulin secretion is assayed by RIA in the incubation medium.
The potential of the various chemical compounds to stimulate insulin secretion is estimated by calculating the stimulation factor*.
A compound stimulates the secretion of insulin if this factor is greater than or equal to 130% for a given dose of glucose. [formula] • where: • G=secretion of insulin (pmol/min. islet) in the presence of glucose alone
G+product=secretion of insulin (pmol/min. islet) in the presence of the same concentration of glucose and of the test chemical compound.

NOSTZ diabetic rats = experiment: Antidiabetic activity (glycaemia) in NOSTZ diabetic rats; assay type: in vivo, rat; conditions: repeated for 4 days, blood two hours after the fourth treatment
Description: Study of the Antidiabetic Activity in NOSTZ rats Effect/Dose of compound 15, in vivo, in the case of NOSTZ diabetic rats (Table D): NOSTZ rats, made diabetic by injection of steptozotocin on the day of birth (Portha et al.; 1974), are treated, orally, daily by administration of 50-100-200 mg/kg of body weight of compound 15, of 200 mg/kg of metformin (reference antidiabetic agent) or of methylcellulose (controls). Blood samples are taken from the anaesthetized animal two hours after the fourth treatment. The glycaemia is measured via the colorimetric method using glucose dehydrogenase. The antidiabetic activity of the compounds of the formula (I) orally was determined on an experimental model of non-insulin-dependent diabetes, induced in rats with steptozotocin. The model of non-insulin-dependent diabetes is obtained in the rats by means of a neonatal injection of steptozotocin. The diabetic rats used are eight weeks old. The animals are housed, from the day of birth to the day of the experiment, in an animal house at a regulated temperature of 21 to 22° C. and subjected to a fixed cycle of light (from 7 a.m. to 7 p.m.) and darkness (from 7 p.m. to 7 a.m.). Their food consisted of a maintenance diet, and water and food were given “ad libitum”, with the exception of fasting two hours before the tests, during which period the food is removed (post-absorptive state). The rats are treated orally for one (D1) or four (D4) days with the test product. Two hours after the final administration of the product and 30 minutes after anaesthetizing the animals with pentobarbital sodium (Nembutal®), a 300 μl blood sample is taken from the end of the tail.

SMILES	activity at 10 µM (insulin secretion) [%]	further results
O=C(COc1c(C(=O)c2ccccc2)sc2ccccc12)c1ccc(Cl)cc1 [Product 1]	206	Insulin secretion stimulation factor, Product + G2.8 mM ([1]; product 10^−5 M): 98%; Insulin secretion stimulation factor, Product + G8 mM ([1]; product 10^−5 M): 135%
COc1ccccc1C(=O)COc1c(C(=O)c2ccccc2)sc2ccccc12 [Product 3]	244	
COc1cccc(C(=O)COc2c(C(=O)c3ccccc3)sc3ccccc23)c1 [Product 8]	193	
COc1ccc(C(=O)COc2c(C(=O)c3ccccc3)sc3ccccc23)c(OC)c1 [Product 14]	287	
CC(C)(C)C(=O)COc1c(C(=O)c2ccccc2)sc2ccccc12 [Product 15, 1-(2-benzoylbenzo[b]thiophen-3-yloxy)-3,3-dimethylbutan-2-one]	207	Insulin secretion stimulation factor, Product + G2.8 mM ([1]; product 10^−5 M): 119%; Insulin secretion stimulation factor, Product + G8 mM ([1]; product 10^−5 M): 152%; Insulin secretion stimulation factor, Product + G2.8 mM ([1]; product 10^−6 M): 125%; Insulin secretion stimulation factor, Product + G8 mM ([1]; product 10^−6 M): 183%; Percentage of variation of glycaemia relative to the controls (NOSTZ diabetic rats; 50 mg/kg/day orally): −13%*; Percentage of variation of glycaemia relative to the controls (NOSTZ diabetic rats; 100 mg/kg/day orally): −23%**; Percentage of variation of glycaemia relative to the controls (NOSTZ diabetic rats; 200 mg/kg/day orally): −18%**
N#Cc1ccc(C(=O)c2sc3ccccc3c2OCc2ccccc2C#N)cc1 [Product 42]	283	
N#Cc1ccc(C(=O)c2sc3ccccc3c2OCc2cccc(C#N)c2)cc1 [Product 43]	257	Insulin secretion stimulation factor, Product + G2.8 mM ([1]; product 10^−5 M): 108%; Insulin secretion stimulation factor, Product + G8 mM ([1]; product 10^−5 M): 135%
N#Cc1ccc(C(=O)c2sc3ccccc3c2OCc2c(Cl)cccc2Cl)cc1 [Product 55]	174	
N#Cc1ccc(C(=O)c2sc3ccccc3c2OCc2ccccc2)cc1 [Product 59]	229	
CS(=O)(=O)c1ccc(COc2c(C(=O)c3ccc(C#N)cc3)sc3ccccc23)cc1 [Product 66]	202	
N#Cc1ccc(C(=O)c2sc3ccccc3c2OCC(=O)c2ccccc2)cc1 [Product 69]	179	
COc1ccccc1C(=O)COc1c(C(=O)c2ccc(C#N)cc2)sc2ccccc12 [Product 70]	189	
Cc1ccc(C(=O)COc2c(C(=O)c3ccc(C#N)cc3)sc3ccccc23)cc1 [Product 72]	185	
COc1ccccc1C(=O)COc1c(C(=O)c2ccccc2)oc2ccccc12 [Product 86]	164	
CN(C)C(=N)N=C(N)N [metformin, reference compound]		Percentage of variation of glycaemia relative to the controls (NOSTZ diabetic rats; 200 mg/kg/day orally): −29%**
